Data: patent publication US8338429B2, “2-acylaminothiazole derivative or salt thereof” (Astellas Pharma, Inc., priority 2002, dated 2012)
Where a name gives a salt, the structure may show the parent alone.

Experiments:
human c-mpl-Ba/F3 cells [1] = assay: Oral administration test for mice (c-mpl-Ba/F3 proliferation activity of plasma); format: in vivo; conditions: male ICR mice, final plasma concentration 10%, maximum of each tested compound = 100%
Procedure: To male ICR mice, a tested compound dissolved or suspended in 0.5% methylcellulose aqueous solution was orally administrated in an amount of 100 mg/kg or 10 mg/kg. […] Plasma obtained by centrifugation at 12,000 rpm for 3 minutes was warmed up at 56° C. for 30 minutes, and added to the human c-mpl.Ba/F3 cell proliferation system described in (i) such that the final plasma concentration became 10%, and then cell proliferation activity was measured. The cell proliferation activity (%) of each plasma batch, when maximum cell proliferation activity of each tested compound was set to 100%, was calculated.

human c-mpl-Ba/F3 cells [2] = assay: Human c-mpl-Ba/F3 cell proliferation test; format: cell-based; conditions: for pot.: concentration promoting cell proliferation to 30% of maximum cell proliferation activity value of Example 9 (of rhTPO for rhTPO), 24 hours culture; for Efficacy: maximum cell proliferation activity, maximum of Example 9 (of rhTPO for rhTPO) set to 100%
Procedure: In a 96 well microplate, 2×10^5 cells/ml of human c-mpl-Ba/F3 cells were cultured at 37° C. for 24 hours with 10% fetal bovine serum containing a RPMI1640 medium (100 μl/well) to which varied concentrations of tested compounds were respectively added. After the culturing, 10 μl/well of WST-1/1-methoxy PMS (cell counting kit, Dojindo) were added. Immediately after the adding and after 2 hours, absorbance of A450/A650 was measured with a microplate reader (Model 3350:Bio-Rad), and the absorbance increase after 2 hours was regarded as proliferation activity of each tested compound.
pot.: Concentration of tested compound for promoting cell proliferation of the compound of Example 9 (compound of Example 9 and rhTPO in rhTPO) to 30% of maximum cell proliferation activity value.
Efficacy: Maximum cell proliferation activity value of tested compound when the maximum cell proliferation activity value of the compound of Example 9 (compound of Example 9 and rhTPO in rhTPO) is set to 100%.

Human CD34+ cells = assay: Test for measuring effects of promoting the formation of megakaryocytic colonies; format: cell-based; conditions: megakaryocytic colonies per well, 10-14 days
Procedure: Human CD34^+ cells were cultured at 37° C. for 10-14 days in the presence of tested materials in a 2 well chamber slide, using MegaCult™-C (Stem Cell Technologies). In accordance with the attached instructions, dehydration, fixing, and staining with antihuman glycoprotein IIb/IIIa antibody were carried out. A group of 3 or more stained megakaryocytes was regarded as 1 colony, and the number of colonies per well was measured with a microscope. EC30 values of each tested compound were calculated from a capacity curve.

[3] = plasma 2 hours after 100 mg/kg p.o.
[4] = plasma 2 hours after 10 mg/kg p.o.

O=C1NC(=S)S/C1=C\c1ccc(C(=O)Nc2nc(-c3ccc(Cl)c(Cl)c3)cs2)cc1 [Control 1, reference compound]
Cell proliferation activity (human c-mpl-Ba/F3 cells [1]; [3]): <10%
pot. (human c-mpl-Ba/F3 cells [2]): 4.4 nM
Efficacy (human c-mpl-Ba/F3 cells [2]): 101%

O=C(O)/C(Cl)=C/c1ccc(C(=O)Nc2nc(-c3ccc(Cl)c(Cl)c3)cs2)cc1 [Control 2, reference compound]
Cell proliferation activity (human c-mpl-Ba/F3 cells [1]; [3]): <10%
pot. (human c-mpl-Ba/F3 cells [2]): 2.1 nM
Efficacy (human c-mpl-Ba/F3 cells [2]): 96%

Cc1sc(NC(=O)c2ccc(/C=C(\Cl)C(=O)O)cc2)nc1-c1cccc(C(F)(F)F)c1 [Control 3, reference compound]
Cell proliferation activity (human c-mpl-Ba/F3 cells [1]; [3]): <10%
pot. (human c-mpl-Ba/F3 cells [2]): 6.9 nM
Efficacy (human c-mpl-Ba/F3 cells [2]): 96%

O=C(Nc1nc(-c2cc(Cl)cs2)c(N2CCN(C3CCCCC3)CC2)s1)c1ccc(OCCO)c(Cl)c1 [Example 9, 3-chloro-N-[4-(4-chlorothiophen-2-yl)-5-(4-cyclohexylpiperazin-1-yl)thiazol-2-yl]-4-(2-hydroxyethoxy)benzamide hydrochloride]
EC30 (Human CD34+ cells): 12 nM
pot. (human c-mpl-Ba/F3 cells [2]): 10 nM
Efficacy (human c-mpl-Ba/F3 cells [2]): 87%

Cl.O=C(Nc1nc(-c2cc(Cl)cs2)c(N2CCN(C3CCCCC3)CC2)s1)c1cnc(N2CCC(C(=O)O)CC2)c(Cl)c1 [Example 16, 1-(3-chloro-5-{[4-(4-chlorothiophen-2-yl)-5-(4-cyclohexylpiperzain-1-yl)thiazol-2-yl]carbamoyl}pyridin-2-yl)piperidine-4-carboxylic acid hydrochloride]
Cell proliferation activity (human c-mpl-Ba/F3 cells [1]; [4]): >80%
pot. (human c-mpl-Ba/F3 cells [2]): 2.4 nM
Efficacy (human c-mpl-Ba/F3 cells [2]): 93%

CCCC1CCN(c2sc(NC(=O)c3ccnc(OC)c3)nc2-c2cc(Cl)cs2)CC1 [Example 66]
EC30 (Human CD34+ cells): 47 nM
Cell proliferation activity (human c-mpl-Ba/F3 cells [1]; [4]): 61%
pot. (human c-mpl-Ba/F3 cells [2]): 14 nM
Efficacy (human c-mpl-Ba/F3 cells [2]): 99%

CCCN1CCN(c2sc(NC(=O)c3ccc(OCCO)c(Cl)c3)nc2-c2cc(Cl)cs2)CC1 [Example 103, 3-chloro-N-[4-(4-chlorothiophen-2-yl)-5-(4-propylpiperazin-1-yl)thiazol-2-yl]-4-(2-hydroxyethoxy)benzamide]
pot. (human c-mpl-Ba/F3 cells [2]): 18 nM
Efficacy (human c-mpl-Ba/F3 cells [2]): 97%

O=C(Nc1nc(-c2cc(Cl)cs2)c(N2CCN(C3CCCCC3)CC2)s1)c1ccc2cnccc2c1 [Example 214, N-[4-(4-chlorothiophen-2-5-yl)-5-(4-cyclohexylpiperazin-1-yl)thiazol-2-yl]isoquinoline-6-carboxamide]
Cell proliferation activity (human c-mpl-Ba/F3 cells [1]; [4]): >80%
pot. (human c-mpl-Ba/F3 cells [2]): 15 nM
Efficacy (human c-mpl-Ba/F3 cells [2]): 106%

O=C(Nc1nc(-c2cc(Cl)cs2)c(N2CCN(C3CCCCC3)CC2)s1)c1cnc(OCCCO)c(Cl)c1 [Example 250, 5-chloro-N-[4-(4-chlorothiophen-2-yl)-5-(4-cyclohexylpiperazin-1-yl)thiazol-2-yl]-6-(3-hydroxypropoxy)nicotinamide]
EC30 (Human CD34+ cells): 26 nM
Cell proliferation activity (human c-mpl-Ba/F3 cells [1]; [4]): >80%
pot. (human c-mpl-Ba/F3 cells [2]): 6.7 nM
Efficacy (human c-mpl-Ba/F3 cells [2]): 87%

rhTPO: thrombopoietin (TPO), a c-Mpl ligand playing an important role in differentiation into megakaryocytes
pot. (human c-mpl-Ba/F3 cells [2]): 0.012 nM
Efficacy (human c-mpl-Ba/F3 cells [2]): 100%
